Data on 27 molecules can be found in US6989384B2, “Antipicornaviral compounds and compositions, their pharmaceutical uses, and materials for their synthesis” (Agouron Pharmaceuticals, Inc., priority 2000, dated 2006).

The target of the assay is T1, rhinovirus 3C protease from HRV serotype-14 (Human rhinovirus 14, UniProt P03303).
T1 construct: Recombinant rhinovirus 3C proteases; made in house
As to the kind of experiment: Inhibition of rhinovirus 3C protease activity (FRET assay), HRV-14. The class given is biochemical. To be noted: HRV-14 3C protease, progress curves, enzyme start; for kinact/KI: read-out: Protease Inhibition kobs/I. As for the experimental part:
Stock solutions (50 mM, in DMSO) of various compounds were prepared; dilutions were in the same solvent. Recombinant rhinovirus 3C proteases (see Birch et al., “Purification of recombinant human rhinovirus 14 3C protease expressed in Escherichia coli,” Protein Expr. Pur. 1995, 6(5), 609–618) from serotypes 14, 16, and 2 were prepared by the following standard chromatographic procedures: (1) ion exchange using Q Sepharose Fast Flow from Pharmacia; (2) affinity chromatography using Affi-Gel Blue from Biorad; and (3) sizing using Sephadex G-100 from Pharmacia. Each assay sample contained 2% DMSO, 50 mM tris pH 7.6, 1 mM EDTA, a test compound at the indicated concentration, approximately 1 μM substrate, and 50–100 nM protease. The kobs/I values were obtained from reactions initiated by addition of enzyme rather than substrate. RVP activity was measured in the fluorescence resonance energy transfer assay. The substrate was (N-terminal) DABCYL-(Gly-Arg-Ala-Val-Phe-Gln-Gly-Pro-Val-Gly)-EDANS. In the uncleaved peptide, the EDANS fluorescence was quenched by the proximal DABCYL group. When the peptide was cleaved, the quenching was relieved, and activity was measured as an increase in fluorescence signal. In the Table, unless otherwise indicated, all data are for rhinovirus 3C protease from HRV serotype-14 (produced from the infectious cDNA clone constructed by Dr. Robert Rueckert, Institute for Molecular Virology, University of Wisconsin, Madison, Wis.). The data in the column designated kobs/[I] were measured from progress curves in enzyme start experiments.

T1 sequence (P03303 1538-1719): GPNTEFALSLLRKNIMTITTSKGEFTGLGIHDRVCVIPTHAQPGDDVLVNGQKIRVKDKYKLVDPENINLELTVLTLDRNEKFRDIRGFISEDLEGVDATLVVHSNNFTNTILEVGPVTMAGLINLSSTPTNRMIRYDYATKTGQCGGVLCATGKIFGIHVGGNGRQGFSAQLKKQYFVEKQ

For `CCOC(=O)/C=C/[C@H](C[C@@H]1CCNC1=O)NC(=O)C1CSC(c2ccccc2)N1C(C)=O` (stereo partly drawn) [Compound 13, 4S-[(3-acetyl-2-phenyl-thiazolidine-4-carbonyl)-amino]-5-(2-oxo-pyrrolidin-3S-yl)-pent-2-enoic acid ethyl ester], the kinact/KI is 169 M⁻¹ s⁻¹.

In the case of `CCOC(=O)/C=C/[C@H](C[C@@H]1CCNC1=O)NC(=O)Cc1cccc(Cl)c1` [Compound 63, 4S-[2-(3-chloro-phenyl)-acetylamino]-5-(2-oxo-pyrrolidin-3S-yl)-pent-2-enoic acid ethyl ester], the kinact/KI stood at 7 M⁻¹ s⁻¹.

As for `CCOC(=O)/C=C/[C@H](C[C@@H]1CCNC1=O)NC(=O)c1ccc2cc(OC)c(OC)cc2c1` [Compound 18, 4S-[(6,7-dimethoxy-naphthalene-2-carbonyl)-amino]-5-(2-oxo-pyrrolidin-3S-yl)-pent-2-enoic acid ethyl ester], the kinact/KI worked out at 262 M⁻¹ s⁻¹.

Regarding `CCOC(=O)/C=C/[C@H](C[C@H]1CCNC1=O)NC(=O)c1ccc2ccccc2c1` [Compound 2, 4S-[(naphthalene-2-carbonyl)-amino]-5-(2-oxo-pyrrolidin-3-R-yl)-pent-2-enoic acid ethyl ester], the kinact/KI came to 400 M⁻¹ s⁻¹.

On to `CCOC(=O)/C=C/[C@H](C[C@@H]1CCNC1=O)NC(=O)c1cncc(Br)c1` [Compound 6, 4S-[(5-bromo-pyridine-3-carbonyl)-amino]-5-(2-oxo-pyrrolidin-3S-yl)-pent-2-enoic acid ethyl ester], for which the kinact/KI was 79 M⁻¹ s⁻¹.

For the molecule `CCOC(=O)/C=C/[C@H](C[C@@H]1CCNC1=O)NC(=O)/C=C/c1cccc(O)c1` [Compound 17, 4S-[3-(3-hydroxy-phenyl)-acryloylamino]-5-(2-oxo-pyrrolidin-3S-yl)-pent-2-enoic acid ethyl ester], the kinact/KI was found to be 315 M⁻¹ s⁻¹.

Turning to `CCOC(=O)/C=C/[C@H](C[C@@H]1CCNC1=O)NC(=O)c1cc2cc(Cl)ccc2[nH]1` [Compound 40, 4S-[(5-Chloro-1H-indole-2-carbonyl)-amino]-5-(2-oxo-pyrrolidin-3S-yl)-pent-2-enoic acid ethyl ester], the kinact/KI stood at 1270 M⁻¹ s⁻¹.

As to `CCOC(=O)/C=C/[C@H](C[C@@H]1CCNC1=O)NC(=O)c1cc2cc(Br)ccc2o1` [Compound 14, 4S-[(5-bromo-benzofuran-2-carbonyl)-amino]-5-(2-oxo-pyrrolidin-3S-yl)-pent-2-enoic acid ethyl ester], the kinact/KI amounted to 219 M⁻¹ s⁻¹.

For the molecule `CCOC(=O)/C=C/[C@H](C[C@@H]1CCNC1=O)NC(=O)c1ccc(C(=O)OC)cc1` [Compound 4, N-[3-ethoxycarbonyl-1S-(2-oxo-pyrrolidin-3R-ylmethyl)-ally]-terephthalamic acid methyl ester], the kinact/KI turned out to be 258 M⁻¹ s⁻¹.

As to `CCOC(=O)/C=C/[C@H](C[C@@H]1CCNC1=O)NC(=O)/C=C/c1ccc(OC)c(OC)c1` [Compound 5, 4S-[3-(3,4-dimethoxy-phenyl)-acryloylamino]-5-(2-oxo-pyrrolidin-3S-yl)-pent-2-enoic acid ethyl ester], the kinact/KI worked out at 173 M⁻¹ s⁻¹.

On to `CCOC(=O)/C=C/[C@H](C[C@@H]1CCNC1=O)NC(=O)/C=C/C(=O)Nc1c(C)cc(C)cc1C` [Compound 50, 5-(2-Oxo-pyrrolidin-3S-yl)-4S-[3-(2,4,6-trimethylphenylcarbamoyl)-acryloylamino]-pent-2-enoic acid ethyl ester], for which the kinact/KI turned out to be 225 M⁻¹ s⁻¹.

On to `CCOC(=O)/C=C/[C@H](C[C@@H]1CCNC1=O)NC(=O)COc1cccc(OC)c1` [Compound 60, 4S-[2-(3-methoxy-phenoxy)-acetylamino]-5-(2-oxo-pyrrolidin-3S-yl)-pent-2-enoic acid ethyl ester], for which the kinact/KI came out at 77 M⁻¹ s⁻¹.

For `CCOC(=O)/C=C/[C@H](C[C@@H]1CCNC1=O)NC(=O)c1cc2ccccc2cc1NC(C)=O` [Compound 22, 4S-[(3-acetylamino-naphthalene-2-carbonyl)-amino]-5-(2-oxo-pyrrolidin-3S-yl)-pent-2-enoic acid ethyl ester], the “Protease Inhibition kobs/I” value was found to be 673 M⁻¹ s⁻¹ and the kinact/KI stood at 581 M⁻¹ s⁻¹.

In the case of `CCOC(=O)/C=C/[C@H](C[C@@H]1CCNC1=O)NC(=O)/C=C/c1ccc(OC)cc1` [Compound 16, 4S-[3-(methoxy-phenyl)-acryloylamino]-5-(2-oxo-pyrrolidin-3S-yl)-pent-2-enoic acid ethyl ester], the kinact/KI was determined as 664 M⁻¹ s⁻¹.

Turning to `CCOC(=O)/C=C/[C@H](C[C@@H]1CCNC1=O)NC(=O)/C=C/c1cc(Br)ccc1Br` [Compound 64, 4S-[3-(2,5-dibromo-phenyl)-acryloylamino]-5-(2-oxo-pyrrolidin-3S-yl)-pent-2-enoic acid ethyl ester], the kinact/KI was 6850 M⁻¹ s⁻¹.

As to `CCOC(=O)/C=C/[C@H](C[C@@H]1CCNC1=O)NC(=O)c1cc2cc(F)ccc2[nH]1` [Compound 39, 4S-[(5-Fluoro-1H-indole-2-carbonyl)-amino]-5-(2-oxo-pyrrolidin-3S-yl)-pent-2-enoic acid ethyl ester], the kinact/KI amounted to 615 M⁻¹ s⁻¹.

As to `CCOC(=O)/C=C/[C@H](C[C@@H]1CCNC1=O)NC(=O)c1nc2ccccc2nc1O` [Compound 7, 4S-[(3-hydroxyquinoxaline-2-carbonyl)-amino]-5-(2-oxopyrrolidin-3S-yl)-pent-2-enoic acid ethyl ester], the kinact/KI was determined as 36 M⁻¹ s⁻¹.

In the case of `CCOC(=O)/C=C/[C@H](C[C@@H]1CCNC1=O)NC(=O)Nc1cc(C)cc(C)c1` [Compound 58, 4S-[3-(3,5-dimethyl-phenyl)-ureido]-5-(2-oxo-pyrrolidin-3S-yl)-pent-2-enoic acid ethyl ester], the kinact/KI amounted to 185 M⁻¹ s⁻¹.

Consider `CCOC(=O)/C=C/[C@H](C[C@@H]1CCNC1=O)NC(=O)COc1cccc(Cl)c1` [Compound 61, 4S-[2-(3-chloro-phenoxy)-acetylamino]-5-(2-oxo-pyrrolidin-35-yl)-pent-2-enoic acid ethyl ester], for which the kinact/KI is 103 M⁻¹ s⁻¹.

On to `CCOC(=O)/C=C/[C@H](C[C@@H]1CCNC1=O)NC(=O)c1cc2cccc([N+](=O)[O-])c2[nH]1` [Compound 42, 4S-[(7-Nitro-1H-indole-2-carbonyl)-amino]-5-(2-oxo-pyrrolidin-3S-yl)-pent-2-enoic acid ethyl ester], for which the kinact/KI turned out to be 272 M⁻¹ s⁻¹.

For `CCOC(=O)/C=C/[C@H](C[C@@H]1CCNC1=O)NC(=O)c1nc2ccccc2[nH]1` [Compound 10, 4-[(1H-benzoimidazole-2-carbonyl)-amino]-5-(2-oxo-pyrrolidin-3S-yl)-pent-2-enoic acid ethyl ester], the kinact/KI was determined as 55 M⁻¹ s⁻¹.

Turning to `CCOC(=O)/C=C/[C@H](C[C@@H]1CCNC1=O)NC(=O)c1cc2cc(OC)c(OCc3ccccc3)cc2[nH]1` [Compound 46, 4S-[(6-Benzyloxy-5-methoxy-1H-indole-2-carbonyl)-amino]-5-(2-oxo-pyrrolidin-3S-yl)-pent-2-enoic acid ethyl ester], the kinact/KI was 1830 M⁻¹ s⁻¹.

With `CCOC(=O)/C=C/[C@H](C[C@@H]1CCNC1=O)NC(=O)c1cc2ccccc2[nH]1` [Compound 47, 4S-[(1H-Indole-2-carbonyl)-amino]-5-(2-oxo-pyrrolidin-3S-yl)-pent-2-enoic acid ethyl ester], the kinact/KI amounted to 283 M⁻¹ s⁻¹.

Regarding `CCOC(=O)/C=C/[C@H](C[C@@H]1CCNC1=O)NC(=O)c1cc2ccccc2cc1N` [Compound 69, 4S-[(3-amino-naphthalene-2-carbonyl)-amino]-5-(2-oxo-pyrrolidin-3S-yl)-pent-2-enoic acid ethyl ester], the kinact/KI turned out to be 142 M⁻¹ s⁻¹.

Take `CCOC(=O)/C=C/[C@H](C[C@@H]1CCNC1=O)NC(=O)Nc1ccccc1Oc1ccccc1` [Compound 55, 5-(2-oxo-pyrrolidin-3S-yl)-4S-[3-(2-phenoxy-phenyl)-ureido]-pent-2-enoic acid ethyl ester]: the kinact/KI worked out at 200 M⁻¹ s⁻¹.

Consider `CCOC(=O)/C=C/[C@H](C[C@@H]1CCNC1=O)NC(=O)/C=C/c1ccc(Cl)cc1` [Compound 11, 4S-[3-(4-chloro-phenyl)-acryloylamino]-5-(2-oxo-pyrrolidin-3S-yl)-pent-2-enoic acid ethyl ester], for which the kinact/KI came to 750 M⁻¹ s⁻¹.

In the case of `CCOC(=O)/C=C/[C@H](C[C@@H]1CCNC1=O)NC(=O)c1ccc2cc(O)ccc2c1` [Compound 65, 4S-[(6-hydroxy-naphthalene-2-carbonyl)-amino]-5-(2-oxo-pyrrolidin-3S-yl)-pent-2-enoic acid ethyl ester], the kinact/KI was determined as 570 M⁻¹ s⁻¹.
